From PMC5693616 (Bioorganic & medicinal chemistry letters, 2017)
Read-outs that look alike come from different tables or passages of the source.

Assays:
[1] = system: EPAC2; conditions: read-out: EPAC2 inhibitory activity IC50; cited from earlier work
[2] = system: EPAC2; conditions: read-out: inhibition of cAMP-mediated EPAC2 GEF activity IC50; cited from earlier work
[3] = target: T1, EPAC1 (Homo sapiens, UniProt O95398); conditions: at 100 μM; cited from earlier work
T1 sequence (O95398 1-923): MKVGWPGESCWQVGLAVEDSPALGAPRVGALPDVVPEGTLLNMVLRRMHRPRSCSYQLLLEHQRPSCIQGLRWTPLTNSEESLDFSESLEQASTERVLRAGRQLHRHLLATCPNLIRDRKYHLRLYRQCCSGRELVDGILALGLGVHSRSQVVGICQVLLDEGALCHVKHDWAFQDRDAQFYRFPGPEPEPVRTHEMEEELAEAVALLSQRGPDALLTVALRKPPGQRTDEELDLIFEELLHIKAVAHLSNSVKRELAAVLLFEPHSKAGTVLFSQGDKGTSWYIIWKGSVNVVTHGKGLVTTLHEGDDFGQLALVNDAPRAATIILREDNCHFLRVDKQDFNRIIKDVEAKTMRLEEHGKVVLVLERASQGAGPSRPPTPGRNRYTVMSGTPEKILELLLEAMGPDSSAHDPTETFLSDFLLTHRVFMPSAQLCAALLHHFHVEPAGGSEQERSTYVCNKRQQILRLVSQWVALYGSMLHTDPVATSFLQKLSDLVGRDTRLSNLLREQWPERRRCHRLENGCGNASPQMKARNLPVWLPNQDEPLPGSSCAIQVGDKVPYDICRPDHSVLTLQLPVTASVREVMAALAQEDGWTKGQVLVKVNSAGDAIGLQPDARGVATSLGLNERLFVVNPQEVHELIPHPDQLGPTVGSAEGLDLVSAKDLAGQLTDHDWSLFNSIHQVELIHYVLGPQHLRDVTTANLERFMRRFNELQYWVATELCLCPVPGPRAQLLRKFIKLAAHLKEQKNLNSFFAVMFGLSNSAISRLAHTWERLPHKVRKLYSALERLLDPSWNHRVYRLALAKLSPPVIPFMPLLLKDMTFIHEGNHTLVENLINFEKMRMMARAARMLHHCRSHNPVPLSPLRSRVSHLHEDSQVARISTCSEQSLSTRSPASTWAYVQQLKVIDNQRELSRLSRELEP

[4] = target: T1, EPAC1; assay type: biochemical; conditions: for EPAC inhibitory activities (in words): Rap1b-bGDP exchange assay

Structure (SMILES): Cc1cc(C)c(Nc2ccc(Cl)c(C(F)(F)F)c2)c(C)c1 [Compound 3]
- IC50 [1]: 400 nM
- IC50 [2]: 1000 nM
- inhibition against EPAC1 [3]: no significant inhibition

Structure (SMILES): CC(C)(C)c1ccc(C(=O)/C(C#N)=N/Nc2cc(Cl)cc(Cl)c2)cc1 [Compound 10, (E)-2-(4-(tert-Butyl)phenyl)-N-(3,5-dichlorophenyl)-2-oxoacetohydrazonoyl cyanide]
- improvement on EPAC1 inhibitory activity compared to compound 6 ([4]; ratio of IC50 values vs compound 6): 2.5 fold

Structure (SMILES): N#C/C(=N\Nc1cc(Cl)cc(Cl)c1)C(=O)c1ccc(-c2ccccc2)cc1 [Compound 26]
- EPAC inhibitory activities (in words) [4]: complete loss of EPAC inhibitory activities

Structure (SMILES): COc1ccc(C(=O)/C(C#N)=N/Nc2cc(Cl)cc(Cl)c2)cc1OC [Compound 27]
- EPAC inhibitory activities (in words) [4]: complete loss of EPAC inhibitory activities
